Data on one molecule can be found in patent US20150087967A1, “METHOD AND APPARATUS USING MAGNETIC RESONANCE IMAGING FOR TISSUE PHENOTYPING AND MONITORING” (Oregon Health & Science University, priority 2012, published 2015).

The subject of the assay is soft tissue sarcomas. As to the kind of experiment: Phase I clinical trial in soft tissue sarcoma patients: MRI (DCE-MRI, DWI, RECIST) after two weeks of Sorafenib only treatment (TP1) versus before therapy (TP0). In kind it is in vivo, human. As for the experimental part: Patients with biopsy-proven, grade 2-3, deep, and >5 cm soft tissue sarcomas participated in a phase I clinical trial in which the vascular endothelial growth factor receptor (VEGFR) inhibitor, Sorafenib, was added to a preoperative chemoradiotherapy regimen. Research MRI studies were performed at time-point zero (TP0)—before therapy, TP1, after two weeks of Sorafenib only treatment, and TP2, after eight more weeks of treatment with Sorafenib plus chemoradiation therapy, followed by surgery and pathology review including estimation of tumor histologic necrosis. A total of eleven patients consented to the research MRI scans, with 9 of them having at least two DCE-MRI studies (at TP0 and TP1). In these 9 patients, five masses were located in the thigh, two in the calf, one in the knee, and one in the shoulder.
The MRI studies were performed using a 3T Siemens instrument with the body transmit and phased-array body matrix (combined with a spine matrix) receive RF coils. Following scout and axial T2-weighted MRI, sagittal diffusion-weighted imaging (DWI) was performed (in seven of the 9 patients) using a spin-echo single-shot EPI sequence with TE/TR=104/8000 ms, 24-36 cm FOV, 5 mm slice thickness with zero gap, 192×192 matrix size, and b values of 0, 500, and 1000 s/mm^2 applied in three orthogonal directions.
Subsequently, a 3D RF-spoiled gradient-echo sequence was used to acquire sagittal DCE-MRI data with 10 degree flip angle, TE/TR=[…], and 320×160 matrix size. […]
ADC trace maps were generated with manufacturer's DWI data processing software. […] The arterial input functions (AIFs) used for the quantitative analyses were directly measured from ROIs placed in a femoral artery (for thigh, knee, and calf tumors) and an axillary artery (for the shoulder mass). The whole tumor ROI DWI/DCE-MRI parameter values were calculated by averaging the ROI values from each of the image slices covering the entire tumor, weighted by the pixel numbers within the image slice ROIs. Pixel parameter values were analyzed with histograms and the amplitude and median values were obtained. […]

`CNC(=O)c1cc(Oc2ccc(NC(=O)Nc3ccc(Cl)c(C(F)(F)F)c3)cc2)ccn1` [Sorafenib]: for the setting “% change at TP1 (two weeks of Sorafenib only) relative to TP0”, the “change in ADC (apparent diffusion coefficient)” value is “small”. Besides, where the note is “% change at TP1 (two weeks of Sorafenib only) relative to TP0, 9 patients”, the “change in tumor size (RECIST)” value was “small”. Further, under “patients with grade 2-3 soft tissue sarcomas, after two weeks of Sorafenib only treatment (TP1)”, the “tumor vascular effect detected by DCE-MRI biomarkers” value is listed as “Tumor vascular shut-down induced by Sorafenib preceded cell death”.
